According to US10457707B2, “Substituted urea depsipeptide analogs as activators of the CLPP endopeptidase” (priority 2015, dated 2019):
*1 amine or outer side, *2 acyl side, *3 side chain or, on linkers, in order; H or OH if unused. Where a SMILES comes first, the peptide text is derived from it. Bridges are numbered along the chain shown (N, C = ends). [ ]: non-standard residue; d: D form. The star is where a group is joined. X15 = O=C([C@@H]1C[C@@H](OP(=O)(O)O)CN1[*:1])[*:2]; Phe(3,5-F2) = N[C@@H](Cc1cc(F)cc(F)c1)C(=O)O; Morpholine(3S-CO) = O=C(O)[C@@H]1COCCN1; Pro(4S-Me) = C[C@@H]1CN[C@H](C(=O)O)C1; Pro(4R-Me) = C[C@H]1CN[C@H](C(=O)O)C1; NH(3,4-Me2-phenyl) = Cc1ccc(N*)cc1C; NH(4-Me-phenyl) = Cc1ccc(N*)cc1; aThr = C[C@H](O)[C@H](N)C(=O)O; Pip = O=C(O)[C@@H]1CCCCN1; NMeA = CN[C@@H](C)C(=O)O; CO = O=C([*:1])[*:2]

Experiment: physchem
Details: 22 °C, aqueous buffer, kinetic from dmso stock
Molecule Cc1ccc(NC(=O)N[C@@H](Cc2cc(F)cc(F)c2)C(=O)N[C@@H]2C(=O)N3C[C@H](OP(=O)(O)O)C[C@H]3C(=O)N(C)[C@@H](C)C(=O)N[C@@H](C)C(=O)N3C[C@@H](C)C[C@H]3C(=O)O[C@H]2C)cc1 [Compound 187, (2S,6S,9S,11aS,13R,17S,18S,20aS)-17-((S)-3-(3,5-difluorophenyl)-2-(3-(p-tolyl)ureido)propanamido)-2,6,9,10,18-pentamethyl-5,8,11,16,20-pentaoxohexadecahydro-1H,5H,16H-dipyrrolo[2,1-c:2′,1′-l][1]oxa[4,7,10,13]tetraazacyclohexadecin-13-yl dihydrogen phosphate] ({NH(4-Me-phenyl)-CO}-[Phe(3,5-F2)][aThr][X15][NMeA]A[Pro(4S-Me)]; ester 2-C) has a solubility of 118 ± 1.4 µM.
In the case of Cc1ccc(NC(=O)N[C@@H](Cc2cc(F)cc(F)c2)C(=O)N[C@@H]2C(=O)N3C[C@H](OP(=O)(O)O)C[C@H]3C(=O)N3CCCC[C@H]3C(=O)N[C@@H](C)C(=O)N3C[C@H](C)C[C@H]3C(=O)O[C@H]2C)cc1 [Compound 190, (2R,6S,8aS,14aS,16R,20S,21S,23aS)-20-((S)-3-(3,5-difluorophenyl)-2-(3-(p-tolyl)ureido)propanamido)-2,6,21-trimethyl-5,8,14,19,23-pentaoxooctadecahydro-1H,5H,14H,19H-pyrido[2,1-i]dipyrrolo[2,1-c:2′,1′-l][1]oxa[4,7,10,13]tetraazacyclohexadecin-16-yl dihydrogen phosphate] ({NH(4-Me-phenyl)-CO}-[Phe(3,5-F2)][aThr][X15][Pip]A[Pro(4R-Me)]; ester 2-C), the solubility is reported as 113 ± 3.9 µM.
With Cc1ccc(NC(=O)N[C@@H](Cc2cc(F)cc(F)c2)C(=O)N[C@@H]2C(=O)N3C[C@H](OP(=O)(O)O)C[C@H]3C(=O)N3CCOC[C@H]3C(=O)N[C@@H](C)C(=O)N3C[C@H](C)C[C@H]3C(=O)O[C@H]2C)cc1C [Compound 189, (6aS,8R,12S,13S,15aS,17R,21S,23aS)-12-((S)-3-(3,5-difluorophenyl)-2-(3-(3,4-dimethylphenyl)ureido)propanamido)-13,17,21-trimethyl-6,11,15,20,23-pentaoxooctadecahydro-6H,11H,15H-[1,4]oxazino[3,4-i]dipyrrolo[2,1-c:2′,1′-L][1]oxa[4,7,10,13]tetraazacyclohexadecin-8-yl dihydrogen phosphate] ({NH(3,4-Me2-phenyl)-CO}-[Phe(3,5-F2)][aThr][X15][Morpholine(3S-CO)]A[Pro(4R-Me)]; ester 2-C) the solubility was 117 ± 3.2 µM.
